Data from patent publication US10953011B2, “Methods of treating virally associated cancers with histone deacetylase inhibitors” (priority 2019, dated 2021).

Columns and labels:
HDAC8 = target: T1, HDAC8 (Homo sapiens, UniProt Q9BY41); experiment: biochemical
T1 sequence (Q9BY41 1-377): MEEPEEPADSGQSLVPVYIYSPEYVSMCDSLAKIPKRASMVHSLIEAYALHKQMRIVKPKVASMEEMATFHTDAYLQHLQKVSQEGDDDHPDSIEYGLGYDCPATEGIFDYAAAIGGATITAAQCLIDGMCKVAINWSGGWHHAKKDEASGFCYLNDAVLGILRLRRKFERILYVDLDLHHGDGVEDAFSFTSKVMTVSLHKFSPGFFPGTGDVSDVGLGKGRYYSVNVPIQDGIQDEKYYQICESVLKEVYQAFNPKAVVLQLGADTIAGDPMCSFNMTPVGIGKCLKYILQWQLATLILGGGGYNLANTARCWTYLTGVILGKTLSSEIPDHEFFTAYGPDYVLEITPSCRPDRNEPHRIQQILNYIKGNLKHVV
Protocol: (§1) Briefly, all of the compounds are dissolved in DMSO. A series of dilutions of the compounds were prepared with 10% DMSO in HDAC assay buffer and 5 μl of the dilution was added to a 50 μl reaction so that the final concentration of DMSO is 1% in all of reactions. The compounds were pre-incubated in duplicate at RT for 1 hour in a mixture containing HDAC assay buffer, 5 μg BSA, HDAC enzyme (see Table 7) and a the particular HDACi. After 1 hour, the enzymatic reactions were initiated by the addition of HDAC substrate (BPS Bioscience) to a final concentration of 10 μM or 2 μM. The enzymatic reaction proceeded for 30 minutes at 37° C.
HDAC activity assays were performed in duplicates at each concentration. The fluorescent intensity data were analyzed using the computer software, Graphpad Prism. In the absence of the compound, the fluorescent intensity (Ft) in each data set was defined as 100% activity. In the absence of HDAC, the fluorescent intensity (Fb) in each data set was defined as 0% activity. The percent activity in the presence of each compound was calculated according to the following equation: % activity=(F−Fb)/(Ft−Fb), where F=the fluorescent intensity in the presence of the compound. […]

HDAC7 = target: T2, HDAC7 (Homo sapiens, UniProt Q8WUI4); experiment: in vitro HDAC inhibition assay (fluorescence); format: biochemical; details: 1 h pre-incubation; 2 μM HDAC Substrate Class 2a; read-out: IC50 (μM) HDAC7
T2 sequence (Q8WUI4 1-952): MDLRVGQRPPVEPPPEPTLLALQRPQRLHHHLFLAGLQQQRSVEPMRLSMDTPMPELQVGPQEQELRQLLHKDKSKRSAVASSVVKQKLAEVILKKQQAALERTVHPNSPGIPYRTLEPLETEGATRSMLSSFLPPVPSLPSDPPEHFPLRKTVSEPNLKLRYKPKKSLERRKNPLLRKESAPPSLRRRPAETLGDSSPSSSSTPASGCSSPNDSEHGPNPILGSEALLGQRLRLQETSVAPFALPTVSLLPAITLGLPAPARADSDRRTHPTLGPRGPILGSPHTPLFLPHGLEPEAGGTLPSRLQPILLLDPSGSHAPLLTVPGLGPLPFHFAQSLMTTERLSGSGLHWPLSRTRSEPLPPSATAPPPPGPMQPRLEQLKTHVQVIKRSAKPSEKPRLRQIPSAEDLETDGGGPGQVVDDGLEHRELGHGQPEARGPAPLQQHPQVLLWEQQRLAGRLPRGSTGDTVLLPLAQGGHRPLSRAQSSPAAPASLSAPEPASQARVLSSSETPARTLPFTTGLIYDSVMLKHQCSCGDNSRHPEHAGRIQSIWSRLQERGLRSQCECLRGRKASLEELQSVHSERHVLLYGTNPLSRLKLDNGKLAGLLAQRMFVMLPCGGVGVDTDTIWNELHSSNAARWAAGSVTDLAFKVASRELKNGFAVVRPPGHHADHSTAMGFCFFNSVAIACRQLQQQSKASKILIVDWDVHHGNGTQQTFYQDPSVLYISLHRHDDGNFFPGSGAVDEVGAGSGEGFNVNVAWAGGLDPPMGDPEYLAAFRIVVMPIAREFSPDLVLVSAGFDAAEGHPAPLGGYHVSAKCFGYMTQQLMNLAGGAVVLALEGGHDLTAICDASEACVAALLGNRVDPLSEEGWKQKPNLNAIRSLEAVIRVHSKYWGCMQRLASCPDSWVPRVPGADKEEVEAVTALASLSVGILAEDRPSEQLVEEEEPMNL
Protocol: as §1
(§2) HDAC activity assays were performed in duplicates at each concentration. The fluorescent intensity data were analyzed using the computer software, Graphpad Prism. In the absence of the compound, the fluorescent intensity (Ft) in each data set was defined as 100% activity. In the absence of HDAC, the fluorescent intensity (Fb) in each data set was defined as 0% activity. The percent activity in the presence of each compound was calculated according to the following equation: % activity=(F−Fb)/(Ft−Fb), where F=the fluorescent intensity in the presence of the compound.
(§3) The values of % activity versus a series of compound concentrations were then plotted using non-linear regression analysis of Sigmoidal dose-response curve generated with the equation Y=B+(T−B)/1+10^((Log EC50-X)×Hill Slope), where Y=percent activity, B=minimum percent activity, T=maximum percent activity, X=logarithm of compound and Hill Slope=slope factor or Hill coefficient. The IC50 value was determined by the concentration causing a half-maximal percent activity.

HDAC11 = target: T3, HDAC11 (Homo sapiens, UniProt Q96DB2); experiment: in vitro HDAC inhibition assay (fluorescence); format: biochemical; details: 1 h pre-incubation; 2 μM HDAC Substrate Class 2a; read-out: IC50 (μM) HDAC11
T3 sequence (Q96DB2 1-347): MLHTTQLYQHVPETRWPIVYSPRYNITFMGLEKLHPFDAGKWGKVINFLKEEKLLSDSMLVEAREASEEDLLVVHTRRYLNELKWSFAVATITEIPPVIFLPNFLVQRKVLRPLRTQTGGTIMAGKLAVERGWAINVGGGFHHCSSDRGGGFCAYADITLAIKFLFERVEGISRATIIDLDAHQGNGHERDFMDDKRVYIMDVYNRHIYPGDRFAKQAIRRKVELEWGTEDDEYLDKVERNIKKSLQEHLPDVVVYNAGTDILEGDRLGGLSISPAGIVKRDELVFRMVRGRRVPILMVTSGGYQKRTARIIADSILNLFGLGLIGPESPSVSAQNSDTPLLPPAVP
Protocol: as §1, §2, §3

HDAC5 = HDAC5 (Homo sapiens, UniProt Q9UQL6); experiment: in vitro HDAC inhibition assay (fluorescence); format: biochemical; details: 1 h pre-incubation; 2 μM HDAC Substrate Class 2a; read-out: IC50 (μM) HDAC5
Protocol: as §1, §2, §3

HDAC9 = HDAC9 (Homo sapiens, UniProt Q9UKV0); experiment: in vitro HDAC inhibition assay (fluorescence); format: biochemical; details: 1 h pre-incubation; 2 μM HDAC Substrate Class 2a; read-out: IC50 (μM) HDAC9
Protocol: as §1, §2, §3

HDAC4 = HDAC4 (Homo sapiens, UniProt P56524); experiment: in vitro HDAC inhibition assay (fluorescence); format: biochemical; details: 1 h pre-incubation; 2 μM HDAC Substrate Class 2a; read-out: IC50 (μM) HDAC4
Protocol: as §1, §2, §3

HDAC 1-3 = details: descriptive statement; cited from earlier work

Sequence of HDAC9 (Q9UKV0 whole entry): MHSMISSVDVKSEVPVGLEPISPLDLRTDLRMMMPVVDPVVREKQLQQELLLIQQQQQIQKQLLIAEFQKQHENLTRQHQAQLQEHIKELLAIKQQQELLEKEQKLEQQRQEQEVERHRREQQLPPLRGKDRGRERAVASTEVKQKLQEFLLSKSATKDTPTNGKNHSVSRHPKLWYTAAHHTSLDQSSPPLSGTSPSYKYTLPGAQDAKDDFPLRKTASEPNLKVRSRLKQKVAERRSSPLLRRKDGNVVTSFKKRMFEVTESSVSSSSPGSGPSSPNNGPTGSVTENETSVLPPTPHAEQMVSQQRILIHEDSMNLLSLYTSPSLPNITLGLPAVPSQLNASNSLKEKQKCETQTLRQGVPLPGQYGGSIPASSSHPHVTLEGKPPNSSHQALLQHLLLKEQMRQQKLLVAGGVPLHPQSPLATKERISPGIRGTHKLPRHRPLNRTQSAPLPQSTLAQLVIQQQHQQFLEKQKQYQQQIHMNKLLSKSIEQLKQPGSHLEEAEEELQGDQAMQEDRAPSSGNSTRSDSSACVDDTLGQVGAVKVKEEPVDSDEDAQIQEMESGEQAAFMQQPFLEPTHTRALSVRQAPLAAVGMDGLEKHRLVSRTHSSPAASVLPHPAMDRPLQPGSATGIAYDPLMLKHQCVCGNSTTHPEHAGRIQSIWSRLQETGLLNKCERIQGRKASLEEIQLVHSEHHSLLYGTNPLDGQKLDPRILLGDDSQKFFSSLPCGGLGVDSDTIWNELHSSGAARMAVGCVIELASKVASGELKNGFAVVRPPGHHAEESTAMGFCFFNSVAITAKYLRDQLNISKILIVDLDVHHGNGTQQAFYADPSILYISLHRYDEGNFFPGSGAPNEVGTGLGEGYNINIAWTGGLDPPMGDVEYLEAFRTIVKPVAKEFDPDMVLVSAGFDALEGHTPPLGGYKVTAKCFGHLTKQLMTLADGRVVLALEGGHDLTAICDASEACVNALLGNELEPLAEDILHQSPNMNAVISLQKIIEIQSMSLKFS
Sequence of HDAC5 (Q9UQL6 whole entry): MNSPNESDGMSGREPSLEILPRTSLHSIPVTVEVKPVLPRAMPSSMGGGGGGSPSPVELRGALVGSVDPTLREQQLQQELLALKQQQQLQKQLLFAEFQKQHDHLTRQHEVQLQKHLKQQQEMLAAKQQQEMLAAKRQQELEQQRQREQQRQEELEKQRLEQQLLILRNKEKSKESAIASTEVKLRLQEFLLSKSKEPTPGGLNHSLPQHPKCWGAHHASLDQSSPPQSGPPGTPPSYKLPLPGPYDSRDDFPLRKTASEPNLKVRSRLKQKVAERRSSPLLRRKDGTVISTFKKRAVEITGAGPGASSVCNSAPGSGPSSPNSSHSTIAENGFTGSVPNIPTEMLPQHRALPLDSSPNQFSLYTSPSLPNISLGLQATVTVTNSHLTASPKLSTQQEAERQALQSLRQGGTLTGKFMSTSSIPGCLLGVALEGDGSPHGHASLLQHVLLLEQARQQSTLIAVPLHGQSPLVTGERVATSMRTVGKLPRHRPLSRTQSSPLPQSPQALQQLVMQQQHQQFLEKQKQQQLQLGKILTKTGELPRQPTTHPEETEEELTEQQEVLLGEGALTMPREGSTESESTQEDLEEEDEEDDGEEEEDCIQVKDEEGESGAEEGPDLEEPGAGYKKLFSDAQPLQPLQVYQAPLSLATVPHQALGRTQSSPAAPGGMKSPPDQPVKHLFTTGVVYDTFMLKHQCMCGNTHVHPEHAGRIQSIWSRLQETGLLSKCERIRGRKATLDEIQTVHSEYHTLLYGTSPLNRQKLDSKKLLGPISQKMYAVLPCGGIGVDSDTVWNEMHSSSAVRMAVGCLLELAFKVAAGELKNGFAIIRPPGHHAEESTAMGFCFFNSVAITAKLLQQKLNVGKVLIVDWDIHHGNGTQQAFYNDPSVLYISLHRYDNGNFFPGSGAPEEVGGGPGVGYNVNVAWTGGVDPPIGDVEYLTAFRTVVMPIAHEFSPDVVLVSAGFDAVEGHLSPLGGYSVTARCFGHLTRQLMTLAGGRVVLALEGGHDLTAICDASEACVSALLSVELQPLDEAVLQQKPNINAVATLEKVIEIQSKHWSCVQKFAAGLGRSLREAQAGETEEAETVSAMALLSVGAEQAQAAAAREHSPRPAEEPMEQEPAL
Sequence of HDAC4 (P56524 whole entry): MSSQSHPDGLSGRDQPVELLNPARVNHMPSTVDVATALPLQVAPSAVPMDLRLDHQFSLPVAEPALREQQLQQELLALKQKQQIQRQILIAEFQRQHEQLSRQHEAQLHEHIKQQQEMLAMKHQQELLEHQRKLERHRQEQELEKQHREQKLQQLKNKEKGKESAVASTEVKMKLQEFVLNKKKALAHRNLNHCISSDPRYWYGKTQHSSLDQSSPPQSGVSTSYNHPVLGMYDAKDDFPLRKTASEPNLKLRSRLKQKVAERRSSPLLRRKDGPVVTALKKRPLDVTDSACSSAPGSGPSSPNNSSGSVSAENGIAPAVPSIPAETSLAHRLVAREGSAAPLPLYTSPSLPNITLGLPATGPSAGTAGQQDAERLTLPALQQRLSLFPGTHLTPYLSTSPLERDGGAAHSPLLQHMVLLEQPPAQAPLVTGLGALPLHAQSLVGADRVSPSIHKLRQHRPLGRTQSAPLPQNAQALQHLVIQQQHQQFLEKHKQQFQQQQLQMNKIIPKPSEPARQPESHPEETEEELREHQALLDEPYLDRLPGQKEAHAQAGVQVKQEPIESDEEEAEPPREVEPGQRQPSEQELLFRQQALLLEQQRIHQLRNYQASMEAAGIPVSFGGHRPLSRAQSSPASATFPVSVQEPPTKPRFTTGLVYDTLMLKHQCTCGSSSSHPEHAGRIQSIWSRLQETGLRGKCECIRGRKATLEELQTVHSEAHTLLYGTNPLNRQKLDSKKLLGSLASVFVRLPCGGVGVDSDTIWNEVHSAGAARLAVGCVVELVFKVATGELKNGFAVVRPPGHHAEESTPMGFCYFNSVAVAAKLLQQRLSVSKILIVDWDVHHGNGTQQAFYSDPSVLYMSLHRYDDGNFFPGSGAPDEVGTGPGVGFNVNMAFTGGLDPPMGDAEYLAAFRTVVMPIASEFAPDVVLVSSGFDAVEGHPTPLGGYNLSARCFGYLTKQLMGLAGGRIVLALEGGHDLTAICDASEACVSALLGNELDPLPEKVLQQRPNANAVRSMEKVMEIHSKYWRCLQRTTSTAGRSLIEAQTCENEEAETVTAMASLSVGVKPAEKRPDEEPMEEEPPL

Question: Which IC50 (HDAC8) does the source give for `O=C(NO)c1cnc(N2C[C@@H]3[C@H](C2)[C@H]3NCc2ccc3cc(F)ccc3n2)nc1` [Nanatinostat, 2-((1R,5S,6s)-6-(((6-fluoroquinolin-2-yl)methyl)amino)-3-azabicyclo[3.1.0]hexan-3-yl)-N-hydroxypyrimidine-5-carboxamide] here?
Answer: 860 nM

Question: And the IC50 (HDAC7)?
Answer: 1.6 µM

Question: What about the IC50 (HDAC11) of the same molecule?
Answer: 2.8 µM

Question: What about the IC50 (HDAC5) of the same molecule?
Answer: 0.39 µM

Question: And the IC50 (HDAC9)?
Answer: 0.44 µM

Question: And the IC50 (HDAC4)?
Answer: 1 µM

Question: What about the “Activity against HDAC 1-3” value (HDAC 1-3) of the same molecule?
Answer: active against HDAC 1-3
